Measurements: PubChem BioAssay AID2060904 (Molecular Pharmacology Branch, DTP, NCI, 2025)

Tested on: 349418-098-R-PDC complex spheroid viability
Assay: Anticancer human tumor 349418-098-R-PDC patient-derived lung adenocarcinoma cell line growth inhibition [RAS]
Conditions: for IC50: curve of first compound; for viability, T/C: stronger effect = lower value; active means viability on the fitted dose curve at most 10% of control; inactive means the rest
Description: RAS pathway inhibitors in Combinations in Complex Spheroids
A high-throughput screen of multi-cell type tumor spheroids was designed to identify active combinations of RAS pathway inhibitors and targeted small molecules. Complex spheroids include a stromal component modeled by human endothelial cells (HUVEC) and fibroblasts modeled by human mesenchymal stem cells (MSCs). The concentration ranges selected for each drug and investigational agent were based upon clinically achievable concentrations if the clinical Cmax of the agent was known.
Compounds. The drugs and investigational agents: abemaciclib (NSC768073), cobimetinib (NSC768068), divarasib (GDC6063, NSC841802), docetaxel (NSC628503), GDC-1971 (RLY-1971, NSC841576), gemcitabine (NSC613327), inavolisib (NSC800729), ipatasertib (NSC767898), KB-0742 (NSC834161), MRTX-1133 (NSC836407), osimertinib (NSC779217), RMC-4630 (NSC839698), RMC-6236 (NSC851965), RMC-6291 (NSC852671), Ro-3306 (NSC812927), sapanisertib (NSC764658), SN-38 (NSC673596), staurosporine (NSC755774), SY5609 (NSC837396), and tovorafenib (DAY101, NSC766906), were obtained from the National Cancer Institute (NCI) Developmental Therapeutics Program Chemical Repository. The FDA-approved anticancer drug set is available from the NCI Developmental Therapeutics Program. […] The stock solutions were prepared in dimethyl sulfoxide (DMSO, Sigma-Aldrich, St. Louis, MO, cat. D2650) at 800-fold the tested concentration and stored at -70 degrees C prior to their use. All drugs and investigational agents were tested over a range starting from a high concentration at or near the clinical Cmax and decreasing in half-log increments. If the clinical Cmax for an agent had not been determined, the highest concentration tested was 10 microM.
Cell Culture. All cells were maintained in an incubator at 37 degrees C and 5% CO2 with 95% humidity. The PDC lines were cultured according to standard operating procedures established by the NCI PDMR. All PDCs were thawed and cultured in Matrigel-coated flasks prepared with a working solution of 1X Ham's F-12 nutrient mix, without supplementation (Invitrogen, Waltham, MA, cat. 11765054), 100 U/mL penicillin-streptomycin (Invitrogen, cat. 15140122), and 2.5% Matrigel (Corning Inc., Corning, NY, cat. 354248) for the first three passages. The 362531-283-R-J2-PDC and 782815-120-R-J1-PDC lines were cultured in 6C/Colon 1B media, which includes advanced DMEM/F-12 (Thermo Fisher Scientific, cat. 12634028), 10 mM HEPES (Thermo Fisher Scientific, cat. 15630080), 1X GlutaMAX supplement (Thermo Fisher Scientific, cat. 35050061), 0.1 mg/mL primocin (InvivoGen, San Diego, CA, cat. ant-pm-2), 10% defined fetal bovine serum, heat inactivated (HyClone Laboratories Inc., Logan, UT, cat. SH30070.03HI), 50% L-WRN conditioned media (ATCC, cat. CRL-3276), 1.25 mM N-Acetyl-L-cysteine (Sigma-Aldrich, cat. A9165), 10 mM nicotinamide (Sigma-Aldrich, cat. N0636), 1X B-27 supplement (Thermo Fisher Scientific, cat. 17504044), 1X N-2 supplement (Thermo Fisher Scientific, cat. 17502048), 50 ng/mL human EGF (Thermo Fisher Scientific, cat. PHG0311), and 10 microM Y-27632 dihydrochloride (Tocris Bioscience, cat. 1254). The K12877-001-R-J1-PDC line was cultured in 6I media, which includes all 6C/Colon 1B media plus 10 ng/mL human FGF-10 (PeproTech, cat. 100-26), 1 ng/mL human FGF-2 (PeproTech, cat. 100-18B), 1 µM prostaglandin E2 (Tocris Bioscience, cat. 2296), […] hydrocortisone (Sigma-Aldrich, cat. H4001), and […] bovine insulin (Sigma-Aldrich, cat. I6634). The K86415-001-R-J1-PDC line was cultured in 6D media, which includes all 6C/Colon 1B media components minus the L-WRN conditioned media. The 485176-168-R4-J1-PDC was cultured in PANC media, which includes all 6C/Colon 1B media plus 100 ng/mL human FGF-10 (PeproTech, cat. 100-26), 500 nM SB-431542 (Selleckchem, cat. S1067), and 10 nM gastrin (Tocris Bioscience, cat. 3006). […]
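Further: spheroids exposed to compound for seven days before viability readout.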

CC1(C)CCC(Nc2ncc(C(F)(F)F)c(-c3c[nH]c4c(P(C)(C)=O)c(C#N)ccc34)n2)CN1 (configuration not stated) + CCn1c(-c2cc(N3CCN(C)CC3)cnc2C(C)OC)c2c3cc(ccc31)-c1csc(n1)CC(NC(=O)C1CC1C)C(=O)N1CCCC(N1)C(=O)OCC(C)(C)C2
1.09 nM: IC50 (second compound 0.3 µM)
inactive: viability, T/C (second compound 0.000949 µM, first compound 0.000949 µM) 53.6% | viability, T/C (second compound 0.000949 µM, first compound 0.003 µM) 23.1% | viability, T/C (second compound 0.000949 µM, first compound 0.00949 µM) 13.3% | viability, T/C (second compound 0.003 µM, first compound 0.000949 µM) 52.2% | viability, T/C (second compound 0.003 µM, first compound 0.003 µM) 22.1% | viability, T/C (second compound 0.003 µM, first compound 0.00949 µM) 14.4% | viability, T/C (second compound 0.00949 µM, first compound 0.000949 µM) 50.2% | viability, T/C (second compound 0.00949 µM, first compound 0.003 µM) 26.2% | viability, T/C (second compound 0.00949 µM, first compound 0.00949 µM) 12.5% | viability, T/C (second compound 0.03 µM, first compound 0.000949 µM) 53.3% | viability, T/C (second compound 0.03 µM, first compound 0.003 µM) 20.5% | viability, T/C (second compound 0.03 µM, first compound 0.00949 µM) 12.5% | viability, T/C (second compound 0.0949 µM, first compound 0.000949 µM) 49.1% | viability, T/C (second compound 0.0949 µM, first compound 0.003 µM) 23.5% | viability, T/C (second compound 0.0949 µM, first compound 0.00949 µM) 11.1% | viability, T/C (second compound 0.3 µM, first compound 0.000949 µM) 53.6% | viability, T/C (second compound 0.3 µM, first compound 0.003 µM) 23.7% | viability, T/C (second compound 0.3 µM, first compound 0.00949 µM) 11.2%
1.02 nM: IC50 (second compound 0.003 µM)
active: viability, T/C (second compound 0.000949 µM, first compound 0.03 µM) 9.61% | viability, T/C (second compound 0.000949 µM, first compound 0.0949 µM) 8.11% | viability, T/C (second compound 0.000949 µM, first compound 0.3 µM) 6.35% | viability, T/C (second compound 0.003 µM, first compound 0.03 µM) 8.76% | viability, T/C (second compound 0.003 µM, first compound 0.0949 µM) 7.99% | viability, T/C (second compound 0.003 µM, first compound 0.3 µM) 7.95% | viability, T/C (second compound 0.00949 µM, first compound 0.03 µM) 9.59% | viability, T/C (second compound 0.00949 µM, first compound 0.0949 µM) 9.15% | viability, T/C (second compound 0.00949 µM, first compound 0.3 µM) 8% | viability, T/C (second compound 0.03 µM, first compound 0.03 µM) 9.78% | viability, T/C (second compound 0.03 µM, first compound 0.0949 µM) 8.18% | viability, T/C (second compound 0.03 µM, first compound 0.3 µM) 8.17% | viability, T/C (second compound 0.0949 µM, first compound 0.03 µM) 10.2% | viability, T/C (second compound 0.0949 µM, first compound 0.0949 µM) 10.9% | viability, T/C (second compound 0.0949 µM, first compound 0.3 µM) 7.97% | viability, T/C (second compound 0.3 µM, first compound 0.03 µM) 11% | viability, T/C (second compound 0.3 µM, first compound 0.0949 µM) 9.58% | viability, T/C (second compound 0.3 µM, first compound 0.3 µM) 7.73%
1.05 nM: IC50 (second compound 0.03 µM)
1.07 nM: IC50 (second compound 0.000949 µM)
< 0.949 nM: IC50 (second compound 0.00949 µM) | IC50 (second compound 0.0949 µM)
